Assay results reported in patent US8697840B2, “Peptide inhibition of lung epithelial apoptosis and pulmonary fibrosis” (Board of Regents, The University of Texas System, priority 2008, dated 2014).

Legend:
PAI-1 [1] = experiment: Western blot of BAL fluid and lung homogenates of bleo-treated mice: PAI-1; format: in vivo, mouse; conditions: 40 μg bleomycin intranasally, day 7; for PAI-1 expression in lung homogenates: 10 mM peptide i.p. by 0.1 ml osmotic pump after 24 h
Procedure: (§1) Mice were treated intranasally with 50 μl saline (SAL; control) or an equal volume of a 40 μg bleomycin solution (Bleo). After 24 h, 10 mM PP-1 (“Bleo+PP-1”) or control peptide (Bleo+CP-1) were given intraperitoneally using a 0.1 ml osmotic pump. Lungs were excised on day 7, bronchoalveolar lavage (BAL) fluid (“B”), lung homogenates (“H”) and membrane proteins (uPAR) were analyzed by Western blotting using antibodies specific for the murine proteins. (The same blot (“H”) was then stripped and analyzed for β-actin confirm equivalent loading of the lanes)
(§2) Mice were treated intranasally with 50 μl saline or an equal volume of a 40 μg bleomycin solution. After 24 h, 10 mM PP-1 or the same concentration of control peptide CP-1 were given intraperitoneally using a 0.1 ml osmotic pump. Lungs were excised on day 7.
Lung tissue was chopped into small pieces with fine scissors and rinsed 3× with PBS. The tissues were then homogenized in 1 ml of extraction buffer (25 mM Tris-HCl, pH 7.9. 0.5 mM EDTA and 0.1 mM PMSF) and the homogenate was centrifuged at 12,000 g for 15 min at 4° C. The supernatant was removed and referred to as the crude extract. Protein content was measured using a BioRad protein assay kit. Cytosolic proteins were separated by SDS-PAGE and transferred to a nitrocellulose membrane which was blocked with 1% BSA in a wash buffer for 1 h at room temperature followed by overnight incubation with antibodies specific for uPA, PAI-1 or p53 in the same buffer at 4° C. Protein was detected by enhanced chemiluminescence (ECL). Membranes were stripped and immunoblotted for β-actin.
Mice were treated intranasally with saline (controls) are indicated (SAL). Mice receiving an equal volume of a 40 μg bleomycin solution are indicated (Bleo). Mice given PP-1 are indicated (PP-1) and those given control peptide are indicated (CP-1). BAL fluid is indicated (B), and lung homogenates (H) and membrane proteins (uPAR). Blots were probed with antibodies specific for the relevant murine proteins. (The same blot (H) was later stripped and analyzed for β-actin confirm equivalent loading of the lanes)

cleaved PARP = experiment: IHC of lung sections of bleo-treated mice: cleaved PARP; format: in vivo, mouse; conditions: peptide 4.5 μM i.p. days 1 and 2, bleomycin 40 μg/50 μl intranasal day 2; up to 72 h
Procedure: On day 2 mice were treated with bleomycin (40 μg/50μl) by intranasal instillation. Mice were sacrificed 24, 48 and 72 h after later, lungs were excised, inflated and fixed in formalin, and […] sections were analyzed by immunohistochemistry (IHC) using an antibody specific for cleaved PARP.
(§3) For immunohistochemical (IHC) analysis, lungs were inflated at constant pressure of 20 cm H2O, removed and fixed overnight in 2% paraformaldehyde in PBS. Tissue was dehydrated by passage through a standard alcohol series and was embedded in paraffin. 5 μm sections were deparaffinized with xylene followed by incubation with 100% and 95% alcohol. After 10 min of antigen retrieval, the slides were incubated with H2O2 for 30 min to quench endogenous peroxidase. Slides were incubated overnight with the respective antibodies in PBS containing 0.1% Tween 20 and further processed using Lab vision kit (Freemont Calif.).

Src kinase = conditions: Beas2B cells, bleo 40 μg/ml, 24 h, Western blot
Procedure: Cell lysates were analyzed for activating tyrosine (Y418) phosphorylation and inhibitory tyrosine (Y529) phosphorylation by Western blotting using phospho-specific antibodies. The same membrane was stripped and analyzed for total Src (Src-2) kinase and β-actin expression by Western blotting using specific antibodies.

PAI-1 [2] = experiment: IHC of lung tissue of bleo-treated mice: PAI-1; format: in vivo, mouse; conditions: bleomycin-treated mice, 24-72 h
Procedure: as §3
An IHC study was conducted to analyze lung tissue for expression p53, uPA, uPAR, PAI-1 and cleaved caspase 3 (Table 2). […] These IHC observations were confirmed by Western blotting (see Example II and FIG. 5).

uPAR = experiment: Western blot of lung membrane proteins of bleo-treated mice: uPAR; format: in vivo, mouse; conditions: 40 μg bleomycin intranasally, 10 mM peptide i.p. by 0.1 ml osmotic pump after 24 h, day 7
Procedure: as §1, §2
After preparation of the cytosolic extract, above, the pellet obtained after the initial centrifugation was resuspended in a membrane extraction buffer containing β-D-glucopyranoside and the suspension was homogenized for 5 to 10 min. […] The resulting clarified supernatant was analyzed for uPAR expression by Western blotting with anti-uPAR antibody and detected by ECL.
Mice were treated intranasally with saline (controls) are indicated (SAL). […] (The same blot (H) was later stripped and analyzed for β-actin confirm equivalent loading of the lanes)

[3] = system: bleo-induced collagen deposition in mouse lung; experiment: Mason's Trichrome stain for collagen of lung sections of bleo-treated mice; format: in vivo; conditions: for Collagen content in lung section: bleo-treated animals, peptide one day after bleo, day 21, trichrome stain
Procedure: FIG. 13 is a set of photomicrographs showing that PP-1 prevents bleo-induced collagen deposition in mouse lung. Mice were treated with bleo (50 μg/ml) by intranasal instillation followed by treatment with PP-1 (10 nM) or control peptide CP-1 on day 2. Lungs were excised on day 21, inflated and fixed in formalin, a sectioned into […] sections which were subjected to Mason's Trichrome stain (a three-color stain that stains cell nuclei red, collagen green or blue, and cytoplasm red). Blue staining indicates collagen deposition in bleo-treated lung sections.
FIGS. 14A & 14B is a series of photomicrographs of lung epithelial tissue stained with Mason's trichrome stain for collagen (FIG. 10A) and by TUNEL staining for apoptosis (FIG. 10B). Bleo-treated animals were instilled with either PP-1, PP-2 or control peptide CP-1 one day after bleo treatment, The lungs were removed on day 21, subjected to the staining procedures and examined for collagen accumulation or apoptosis.
Collagen deposition in mouse lung after bleo treatment was investigated. Mice were treated with bleo (50 μg/ml) by intranasal instillation followed by treatment with PP-1 (10 nM) (designated as PP in Figure) or control peptide CP-1 (designated CP in FIG. 13) on day 2. Lungs were excised on day 21, inflated and fixed in formalin, a sectioned into […] sections which were subjected to Mason's Trichrome stain (a three-color stain that stains cell nuclei red, collagen green or blue, and cytoplasm red).
A comparison was made of normal and bleo-treated lung, and the effect of PP-1 and PP-2 on the bleo-treated lungs were examined. Animals were treated with bleo and peptides as above. Lung tissue was removed at day 21 and stained with Mason's trichrome stain for collagen and subjected to TUNEL staining for apoptosis.

[4] = system: bleo-induced DNA fragmentation; experiment: DNA fragmentation of genomic DNA from mouse lung extracts; format: in vivo; conditions: i.p. 0.1 ml osmotic minipump, 10 mM peptide, one day after intranasal bleo; lungs after 16 days
Procedure: Alternatively, PP-1 or CP-1 were administered in a continuous manner by i.p. implantation of an 0.1 ml osmotic minipump filled with PP-1 or CP-1 (10 mM or 2.92 mg/100 μl) one day after intranasal instillation of bleo. Lungs were harvested after 16 days. Total dose administered over that period was about 147 mg/kg. The apoptotic scores were calculated by counting the number of apoptotic cells in each field. Genomic DNA was isolated from saline, bleo, Bleo+PP-1 or Bleo+CP-1 mouse lung extracts, and subjected to DNA fragmentation.

Substance | PAI-1 expression in lung homogenates (PAI-1 [1]) | PAI-1 in BAL fluid (PAI-1 [1]) | cleavage (degradation) of PARP in lung (cleaved PARP) | Src kinase activation (Y418 / Y529 phosphorylation) (Src kinase) | PAI-1 expression in lung tissue (IHC) (PAI-1 [2]) | uPAR levels in lung (membrane proteins) (uPAR) | Collagen content in lung section [3] | bleo-induced DNA fragmentation [4] | bleo-induced collagen deposition (Mason's Trichrome stain) ([3]; bleo 50 μg/ml intranasal, PP-1 (10 nM) on day 2, lungs day 21) | development of bleo-induced lung fibrosis ([3]; conclusion from Table 3, day 21)
Bleomycin | increased | increased | induced cleavage of PARP after 72 h of exposure | Src kinase activation through phosphorylation of Src Y418 | PAI-1 expression was also increased in bleomycin-treated mice beginning 24 h after treatment | suppression | Increased |  |  | 
DGIWKASFTTFTVTKYWFYR [PP-1, residues 82-101 of human Cav-1, the caveolin-1 scaffolding domain] | inhibited the increased p53 and PAI-1 expression |  | reversed such PARP degradation | inhibited bleo-induced activation of Src Y418 through phosphorylation of Src Y529 | reduced this PAI-1 expression | enhanced the suppressed uPA and uPAR levels | Normal | protect against bleo-induced LEC apoptosis and DNA fragmentation | prevented bleo-induced collagen deposition | prevented the development of bleo-induced lung fibrosis
